Experimental data from a melting point compilation (Tetko et al.).

| Compound | melting point [°C] |
| --- | --- |
| COC(=O)C=C(CCl)OC | 25 |
| CC(C)(C)OC(=O)NC(Cc1ccc2ccccc2c1)C(=O)O (configuration not stated) | 90 |
| COc1ccc(NC=C2C(=O)NN=C2c2c(O)c3ccccc3n(C)c2=O)cc1 | 281 |
| NC(CSc1ncccc1C(F)(F)F)=NO | 161 to 164 |
| CCCSP(=O)(OCC)Oc1ccc(Br)cc1Cl (configuration not stated) | < 25 |
| CC(=O)NC(Cc1c[nH]c2ccccc12)C(=O)O (racemic) | 204 to 206 |
| c1ccc2c(c1)c1cccc3ccc4cccc2c4c31 | 180 to 182 |
| Clc1cc(Cl)c(I)c(Cl)c1 | 56 to 58 |
| CN(C)c1ccc(/C=C(\C#N)c2nc(-c3cccc4ccccc34)cs2)cc1 | 128 |
| O=C(N[C@H](Cc1cccc(Br)c1)C(=O)O)OCC1c2ccccc2-c2ccccc21 | 146 |
| CC(C)(C)OC(=O)NO | 57 |
| CC1(C)OC2CC3C4CCC5=CC(=O)C=CC5(C)C4(F)C(O)CC3(C)C2(C(=O)CO)O1 (configuration not stated) | 293 |
| Oc1ccc2c(O)cccc2c1 | 138 |
| COc1cc(OC)nc(NC(=O)NS(=O)(=O)c2c(-c3nnn(C)n3)cnn2C)n1 | 170 |
| COC(=O)c1ccc(CN2CCN(C(=O)OC(C)(C)C)CC2)cc1 | 78 to 80 |
| CC12CCC(=O)C=C1CCC1C2C(=O)CC2(C)C(C(=O)CO)CCC12 (configuration not stated) | 184 |
| CCc1ccc(N2C(=O)C=CC2=O)cc1 | 66 |
| OC1C2COC(O2)C(O)C1O (configuration not stated) | 183 |
| COc1ccc(Cc2c(N)n[nH]c2N)cc1 | 152 to 154 |
| Cc1ccccc1Oc1ccccc1 | 21.7 |
| CC12CCC(=O)CC1CCC13OC14CCC(=O)C4(C)CCC23 (configuration not stated) | 171 to 173 |

| Compound | melting point [°C] |
| --- | --- |
| O=C(SSC(=O)c1ccccc1)c1ccccc1 | 134 |
| O=C(O)c1cc(S(=O)(=O)F)c2ccccc2c1O | 300 |
| COC(=O)c1cc(Cl)cc(C(=O)OC)c1 | 78 to 80 |
| CC(C)(O)Cc1ccccc1 | 24 |
| C1CCCCCCCCC1 | 10 |
| NC(=O)c1cc(Cl)ccc1Cl | 160 |
| NC(=O)c1c(Cl)cc(C(F)(F)F)cc1Cl | 166 to 169 |
| C[Si]1(C)N[Si](C)(C)N[Si](C)(C)N1 | -10 |
| NCc1ccc(CN2CCOCC2)cc1 | 54 to 55 |
| NC(=O)NN=C(O)/C=C/c1ccccc1 | 197 to 198 |
| COC(=O)c1cccc(CBr)c1 | 44 |
| O=C(OC1OC(=O)c2ccccc21)c1ccccc1 (configuration not stated) | 133 to 135 |
| COc1ccc(Nc2ccc(OC)cc2)cc1 | 102 |
| COc1cc2c(cc1C)C(C#N)C2 (configuration not stated) | 67 |
| CCCCOc1ccc(N=Nc2ccc(N)nc2N)cn1 | 129 |
| CCCCOc1ccc(/C=N/c2ccc(C(C)=O)cc2)cc1 | 80 to 128 |
| Oc1cc(F)ccc1F | 38 |
| COC(=O)/C(=C/c1ccc([N+](=O)[O-])cc1)c1ccccc1C(=O)OC | 121 to 122 |
| S=C=NCC(c1ccccc1)c1ccccc1 | 36 to 38 |
| CCOC(=O)C1=C(C)NC(C)=C(C(=O)OCC)C1 | 180 |
| CC1COC(Cn2cncn2)(c2ccc(Oc3ccc(Cl)cc3)cc2Cl)O1 (configuration not stated) | 76 |

| Compound | melting point [°C] |
| --- | --- |
| CCCCCOC(=O)COc1cc(N2C(=O)C3=C(CCCC3)C2=O)c(F)cc1Cl | 89 |
| Cc1c(C(=O)O)cnn1-c1ccc(Cl)cc1 | 201 to 202 |
| FC(F)(F)c1nnc(S)n1N=Cc1ccc(Cl)cc1 | 255 |
| COc1ccc(C(O)C(=O)O)cc1 (configuration not stated) | 108 to 111 |
| CCCCCCCOC(=O)CCCCCC | -33 |
| O=[N+]([O-])c1cccc(S(=O)(=O)OCC2CO2)c1 (configuration not stated) | 61 to 65 |
| CN1C(=O)CC[C@H]1c1cccnc1 | 41 |
| COC(=O)c1ccccc1-n1c(=S)[nH]c2ccccc2c1=O | 255 to 257 |
| Cc1c(NC(=O)C(C(F)(F)F)C(F)(F)F)c(=O)n(-c2ccccc2)n1C | 237 to 239 |
| CCCCCCCCCCCCCN | 27.4 |
| COP1(=S)OCc2ccccc2O1 (configuration not stated) | 55 |
| Cc1ccc(C)nc1 | -16 |
| CCC(Cc1c(I)cc(I)c(O)c1I)C(=O)O (configuration not stated) | 147 |
| CC(=O)CCCCC(C)=O | 44 |
| NC(=O)C1CCCNC1 (configuration not stated) | 102 to 108 |
| Cc1c(N)cccc1C(F)(F)F | 39 |
| Nc1ccccc1S | 26 |
| O=S1(=O)CCN(Cc2cccs2)CC1 | 126 to 128 |
| Cc1cccc2c(O)c(C=C3C(=O)N(c4ccccc4)N=C3c3ccccc3)c(=O)[nH]c12 | 113 |
| O=C(Cc1ccccc1)C(Cc1ccccc1)=NNc1ccc([N+](=O)[O-])cc1 | 174 |
